Data: article PMC7345905, “Microbial Metabolite Urolithin B Inhibits Recombinant Human Monoamine Oxidase A Enzyme” (Metabolites, 2020)
“And” between values parts separate entries of the source, which are not always exact repeats. Equal entries are not always repeated.

Assays:
human recombinant MAO-B = molecular target: T1, human recombinant MAO-B (Homo sapiens, UniProt P27338); experiment: MAO-Glo MAO-B inhibition assay; assay type: biochemical; settings: N=1-3, listed as UroC
T1 construct: purchased Sigma-Aldrich
T1 sequence (P27338 1-520): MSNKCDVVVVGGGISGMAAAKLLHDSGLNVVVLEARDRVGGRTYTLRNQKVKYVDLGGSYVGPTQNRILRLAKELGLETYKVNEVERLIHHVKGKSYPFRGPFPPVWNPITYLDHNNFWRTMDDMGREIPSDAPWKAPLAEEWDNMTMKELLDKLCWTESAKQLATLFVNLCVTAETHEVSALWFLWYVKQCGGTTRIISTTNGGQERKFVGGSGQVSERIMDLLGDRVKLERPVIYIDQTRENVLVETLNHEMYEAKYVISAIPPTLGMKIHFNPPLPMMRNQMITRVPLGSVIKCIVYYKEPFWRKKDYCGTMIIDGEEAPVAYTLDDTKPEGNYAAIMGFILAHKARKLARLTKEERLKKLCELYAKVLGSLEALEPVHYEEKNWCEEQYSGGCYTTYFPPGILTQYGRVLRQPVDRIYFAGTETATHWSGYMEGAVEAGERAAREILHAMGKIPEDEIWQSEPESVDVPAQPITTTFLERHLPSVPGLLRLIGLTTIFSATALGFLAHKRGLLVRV

human recombinant MAO-A = molecular target: T2, human recombinant MAO-A (Homo sapiens, UniProt P21397); experiment: MAO-A inhibition kinetics (variable substrate, Lineweaver–Burk plot); assay type: biochemical; parameters: Michaelis-Menten best-fit Vmax of MAO-A / Michaelis-Menten best-fit Vmax of MAO-A, Average: unit not given here; settings: for MAO-A assay signal (luminescence) / Transformed (reciprocal of MAO-A assay signal) / Michaelis-Menten best-fit Vmax of MAO-A: N=1-3
T2 construct: purchased Sigma-Aldrich
T2 sequence (P21397 1-527): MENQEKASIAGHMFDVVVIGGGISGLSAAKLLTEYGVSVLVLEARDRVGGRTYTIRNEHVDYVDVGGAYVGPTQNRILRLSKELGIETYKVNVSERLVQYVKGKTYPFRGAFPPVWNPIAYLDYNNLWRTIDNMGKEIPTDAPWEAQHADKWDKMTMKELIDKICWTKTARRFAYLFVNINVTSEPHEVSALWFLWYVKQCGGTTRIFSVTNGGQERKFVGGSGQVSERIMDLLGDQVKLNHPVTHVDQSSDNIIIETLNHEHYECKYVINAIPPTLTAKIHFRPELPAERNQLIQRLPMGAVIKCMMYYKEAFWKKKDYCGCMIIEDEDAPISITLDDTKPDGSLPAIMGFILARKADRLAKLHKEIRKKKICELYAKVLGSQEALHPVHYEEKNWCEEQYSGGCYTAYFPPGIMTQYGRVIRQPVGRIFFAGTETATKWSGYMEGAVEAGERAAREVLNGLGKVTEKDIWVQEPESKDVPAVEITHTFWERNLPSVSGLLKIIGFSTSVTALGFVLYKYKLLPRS
Method: MAO inhibition assays were performed using a MAO-Glo™ Assay kit (Promega) according to the manufacturer’s instructions. Briefly, 1 µg of human recombinant MAO-A and MAO-B enzyme isoforms were incubated with 160 and 16 µM of MAO substrates, respectively. […] The enzyme reaction was quenched by the addition of a luciferin detection reagent. […] An equal volume of dimethyl sulfoxide (0.1%) was added to the enzyme assay as a control. After 1 h of incubation, the luminescence was measured with a multimode microplate reader (Synergy HT, BioTek, Winooski, VT, USA) to determine the MAO enzyme activities. Initially, the inhibition potential of all the test compounds was evaluated at a concentration of 100 μM. The control reaction (with no inhibitor) with vehicle (DMSO 0.1%) was set at 100% activity. To determine IC50 of the test compounds, the dose dependent enzyme assays were performed. We used range of 0.1 to 50 μM concentrations for MAO-A and 0.1 to 200 μM concentrations of test compounds for the MAO-B enzyme activities. The type of enzyme inhibition was determined using variable concentrations of MAO-A substrate (10–360 µM) and MAO-B substrate (2–64 µM) for the respective enzyme assay. […] A Lineweaver–Burk double reciprocal plot was generated, and the mode of inhibition was determined by visual examination of the plot. The slope of the reciprocal plots was plotted against the inhibitor concentrations and determined the x-axis intercept that represented the inhibitor constant, Ki value.
All experiments were performed in triplicates and data are presented as mean ± standard error of the mean (SEM). The raw data are provided in Supplementary Data, Table S1. Enzyme kinetic data were analyzed using the Lineweaver–Burk plot. Statistical analysis was performed by Student’s t-test using GraphPad Prism Ver. 7.0 (GraphPad Prism Software Inc., San Diego, CA, USA).

[1] = UroC 15 µM, MAO-A substrate 10 uM
[2] = UroC 15 µM, MAO-A substrate 20 uM
[3] = UroC 15 µM, MAO-A substrate 40 uM
[4] = UroC 15 µM, MAO-A substrate 80 uM
[5] = UroC 15 µM, MAO-A substrate 160 uM
[6] = UroC 15 µM, MAO-A substrate 320 uM
[7] = UroC 60 µM, MAO-A substrate 10 uM
[8] = UroC 60 µM, MAO-A substrate 20 uM
[9] = UroC 60 µM, MAO-A substrate 40 uM
[10] = UroC 60 µM, MAO-A substrate 80 uM
[11] = UroC 60 µM, MAO-A substrate 160 uM
[12] = UroC 60 µM, MAO-A substrate 320 uM

SMILES: O=c1oc2cc(O)ccc2c2cc(O)c(O)cc12 [UC, urolithin-C]
- MAO-B enzyme assay, Percent of control (human recombinant MAO-B; 0.1 µM): 110.306% of control and 101.117% of control and 109.128% of control
- MAO-B enzyme assay, Percent of control (human recombinant MAO-B; 1 µM): 102.407% of control and 98.5247% of control and 98.1149% of control
- MAO-B enzyme assay, Percent of control (human recombinant MAO-B; 10 µM): 102.182% of control and 94.8161% of control and 92.9925% of control
- MAO-B enzyme assay, Percent of control (human recombinant MAO-B; 25 µM): 89.5195% of control and 89.6937% of control and 94.0068% of control
- MAO-B enzyme assay, Percent of control (human recombinant MAO-B; 50 µM): 87.5627% of control and 83.096% of control and 84.7864% of control
- MAO-B enzyme assay, Percent of control (human recombinant MAO-B; 100 µM (Figure 1C), 100 µM): 86.1998% of control and 88.2904% of control and 90.5046% of control
- MAO-B enzyme assay, Percent of control (human recombinant MAO-B; 100 µM): 82.8808% of control and 77.9531% of control and 81.7949% of control
- MAO-B enzyme assay, Percent of control (human recombinant MAO-B; 200 µM): 43.4074% of control and 44.8007% of control and 46.1838% of control
- mode of inhibition of MAO-A (human recombinant MAO-A; Lineweaver–Burk plot): mixed mode of inhibition
- MAO-A assay signal (luminescence), Average (human recombinant MAO-A; [1]): 1825
- MAO-A assay signal (luminescence) (human recombinant MAO-A; [1]): 1969 and 1718 and 1788
- MAO-A assay signal (luminescence), Average (human recombinant MAO-A; [2]): 3291
- MAO-A assay signal (luminescence) (human recombinant MAO-A; [2]): 3541 and 3116 and 3216
- MAO-A assay signal (luminescence), Average (human recombinant MAO-A; [3]): 5930.67
- MAO-A assay signal (luminescence) (human recombinant MAO-A; [3]): 6537 and 5679 and 5576
- MAO-A assay signal (luminescence), Average (human recombinant MAO-A; [4]): 11350.3
- MAO-A assay signal (luminescence) (human recombinant MAO-A; [4]): 12348 and 10938 and 10765
- MAO-A assay signal (luminescence), Average (human recombinant MAO-A; [5]): 17552.3
- MAO-A assay signal (luminescence) (human recombinant MAO-A; [5]): 18484 and 16889 and 17284
- MAO-A assay signal (luminescence), Average (human recombinant MAO-A; [6]): 26455.7
- MAO-A assay signal (luminescence) (human recombinant MAO-A; [6]): 27220 and 26215 and 25932
- Transformed (reciprocal of MAO-A assay signal), Average (human recombinant MAO-A; UroC 15 µM, [1/S] 0.003125): 3.78e-5
- Transformed (reciprocal of MAO-A assay signal) (human recombinant MAO-A; UroC 15 µM, [1/S] 0.003125): 3.674e-5 and 3.815e-5 and 3.856e-5
- Transformed (reciprocal of MAO-A assay signal), Average (human recombinant MAO-A; UroC 15 µM, [1/S] 0.00625): 5.697e-5
- Transformed (reciprocal of MAO-A assay signal) (human recombinant MAO-A; UroC 15 µM, [1/S] 0.00625): 5.41e-5 and 5.921e-5 and 5.7857e-5
- Transformed (reciprocal of MAO-A assay signal), Average (human recombinant MAO-A; UroC 15 µM, [1/S] 0.0125): 8.81e-5
- Transformed (reciprocal of MAO-A assay signal) (human recombinant MAO-A; UroC 15 µM, [1/S] 0.0125): 8.098e-5 and 9.142e-5 and 9.289e-5
- Transformed (reciprocal of MAO-A assay signal), Average (human recombinant MAO-A; UroC 15 µM, [1/S] 0.025): 0.0001686
- Transformed (reciprocal of MAO-A assay signal) (human recombinant MAO-A; UroC 15 µM, [1/S] 0.025): 0.000153 and 0.0001761 and 0.0001793
- Transformed (reciprocal of MAO-A assay signal), Average (human recombinant MAO-A; UroC 15 µM, [1/S] 0.05): 0.0003039
- Transformed (reciprocal of MAO-A assay signal) (human recombinant MAO-A; UroC 15 µM, [1/S] 0.05): 0.0002824 and 0.0003209 and 0.0003109
- Transformed (reciprocal of MAO-A assay signal), Average (human recombinant MAO-A; UroC 15 µM, [1/S] 0.1): 0.0005479
- Transformed (reciprocal of MAO-A assay signal) (human recombinant MAO-A; UroC 15 µM, [1/S] 0.1): 0.0005079 and 0.0005821 and 0.0005593
- MAO-A assay signal (luminescence), Average (human recombinant MAO-A; [7]): 728
- MAO-A assay signal (luminescence) (human recombinant MAO-A; [7]): 706 and 793 and 685
- MAO-A assay signal (luminescence), Average (human recombinant MAO-A; [8]): 1221
- MAO-A assay signal (luminescence) (human recombinant MAO-A; [8]): 1198 and 1213 and 1252
- MAO-A assay signal (luminescence), Average (human recombinant MAO-A; [9]): 2305.33
- MAO-A assay signal (luminescence) (human recombinant MAO-A; [9]): 2310 and 2236 and 2370
- MAO-A assay signal (luminescence), Average (human recombinant MAO-A; [10]): 4337.33
- MAO-A assay signal (luminescence) (human recombinant MAO-A; [10]): 4338 and 4394 and 4280
- MAO-A assay signal (luminescence), Average (human recombinant MAO-A; [11]): 8033.33
- MAO-A assay signal (luminescence) (human recombinant MAO-A; [11]): 7953 and 7801 and 8346
- MAO-A assay signal (luminescence), Average (human recombinant MAO-A; [12]): 14867.3
- MAO-A assay signal (luminescence) (human recombinant MAO-A; [12]): 14760 and 14941 and 14901
- Transformed (reciprocal of MAO-A assay signal), Average (human recombinant MAO-A; UroC 60 µM, [1/S] 0.003125): 6.726e-5
- Transformed (reciprocal of MAO-A assay signal) (human recombinant MAO-A; UroC 60 µM, [1/S] 0.003125): 6.775e-5 and 6.693e-5 and 6.711e-5
- Transformed (reciprocal of MAO-A assay signal), Average (human recombinant MAO-A; UroC 60 µM, [1/S] 0.00625): 0.0001245
- Transformed (reciprocal of MAO-A assay signal) (human recombinant MAO-A; UroC 60 µM, [1/S] 0.00625): 0.0001257 and 0.0001282 and 0.0001198
- Transformed (reciprocal of MAO-A assay signal), Average (human recombinant MAO-A; UroC 60 µM, [1/S] 0.0125): 0.0002306
- Transformed (reciprocal of MAO-A assay signal) (human recombinant MAO-A; UroC 60 µM, [1/S] 0.0125): 0.0002305 and 0.0002276 and 0.0002336
- Transformed (reciprocal of MAO-A assay signal), Average (human recombinant MAO-A; UroC 60 µM, [1/S] 0.025): 0.0004338
- Transformed (reciprocal of MAO-A assay signal) (human recombinant MAO-A; UroC 60 µM, [1/S] 0.025): 0.0004329 and 0.0004472 and 0.0004219
- Transformed (reciprocal of MAO-A assay signal), Average (human recombinant MAO-A; UroC 60 µM, [1/S] 0.05): 0.000819
- Transformed (reciprocal of MAO-A assay signal) (human recombinant MAO-A; UroC 60 µM, [1/S] 0.05): 0.0008347 and 0.0008244 and 0.0007987
- Transformed (reciprocal of MAO-A assay signal), Average (human recombinant MAO-A; UroC 60 µM, [1/S] 0.1): 0.001374
- Transformed (reciprocal of MAO-A assay signal) (human recombinant MAO-A; UroC 60 µM, [1/S] 0.1): 0.001416 and 0.001261 and 0.00146
- Michaelis-Menten best-fit Vmax of MAO-A, Average (human recombinant MAO-A; in presence of UroC 15 uM): 50085
- Michaelis-Menten best-fit Vmax of MAO-A (human recombinant MAO-A; in presence of UroC 15 uM): 47688 and 52039 and 50528
- Michaelis-Menten best-fit Vmax of MAO-A, Average (human recombinant MAO-A; in presence of UroC 60 uM): 82346
- Michaelis-Menten best-fit Vmax of MAO-A (human recombinant MAO-A; in presence of UroC 60 uM): 96239 and 71263 and 79536
- Ki (human recombinant MAO-A; x-axis intercept of slopes of Lineweaver–Burk plots vs inhibitor concentration): 44.3 µM
